Experimental data published in ChEMBL document CHEMBL1201862, “PubChem BioAssay data set” (2004).
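In this assay, cells in 96-well plates receive the compound at five concentrations for 48 hours. Endpoints are linearly interpolated between the surrounding concentrations. GI50 = concentration required for 50% inhibition of growth.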 Calls of active or inactive are those of the source. Rule as the data show it: active = GI50 up to about 1.1 µM and inactive = higher.

Columns and labels:
Test in all cases: NCI tumour cell line growth inhibition, 48 h
ACHN = tested on: ACHN
COLO 205 = tested on: COLO 205
EKVX = tested on: EKVX
HCT-116 = tested on: HCT-116
KM12 = tested on: KM12
LOX IMVI = tested on: LOX IMVI
MDA-MB-231 = tested on: MDA-MB-231
MOLT-4 = tested on: MOLT-4
NCI/ADR-RES = tested on: NCI/ADR-RES
OVCAR-3 = tested on: OVCAR-3
OVCAR-5 = tested on: OVCAR-5
OVCAR-8 = tested on: OVCAR-8
PC-3 = tested on: PC-3
RPMI-8226 = tested on: RPMI-8226
RXF 393 = tested on: RXF 393
SF-295 = tested on: SF-295
SK-MEL-5 = tested on: SK-MEL-5
SK-OV-3 = tested on: SK-OV-3
SR = tested on: SR
HCC 2998 = tested on: HCC 2998

Structure (SMILES)	GI50 (ACHN)	GI50 (COLO 205)	GI50 (EKVX)	GI50 (HCT-116)	GI50 (KM12)	GI50 (LOX IMVI)	GI50 (MDA-MB-231)	GI50 (MOLT-4)	GI50 (NCI/ADR-RES)	GI50 (OVCAR-3)	GI50 (OVCAR-5)	GI50 (OVCAR-8)	GI50 (PC-3)	GI50 (RPMI-8226)	GI50 (RXF 393)	GI50 (SF-295)	GI50 (SK-MEL-5)	GI50 (SK-OV-3)	GI50 (SR)	GI50 (HCC 2998)
CCC1c2[nH]c3ccccc3c2C[C@H]2C(=O)NC(COC(C)(C)C)C(=O)N12 (some centres undefined)	42 µM (inactive)	19.7 µM (inactive)	45.2 µM (inactive)	41.6 µM (inactive)	27.9 µM (inactive)	37.3 µM (inactive)	36.9 µM (inactive)	31.4 µM (inactive)	40.7 µM (inactive)	32 µM (inactive)	47.3 µM (inactive)	39.4 µM (inactive)	28.5 µM (inactive)	32.4 µM (inactive)	55.5 µM (inactive)	19.4 µM (inactive)	27.8 µM (inactive)	63 µM (inactive)	31.3 µM (inactive)	–
CC(=O)OC1CCC2(C)C(=CCC3C2CCC2(C)C3CC3OC4(CCC(C)CN4)C(C)C32)C1 (centres undefined)	> 100 µM (inactive)	> 100 µM (inactive)	> 100 µM (inactive)	> 100 µM (inactive)	> 100 µM (inactive)	> 100 µM (inactive)	> 100 µM (inactive)	> 100 µM (inactive)	> 100 µM (inactive)	> 100 µM (inactive)	> 100 µM (inactive)	> 100 µM (inactive)	> 100 µM (inactive)	> 100 µM (inactive)	> 100 µM (inactive)	> 100 µM (inactive)	> 100 µM (inactive)	> 100 µM (inactive)	80.2 µM (inactive)	–
O=C(O)/C(Cc1c[nH]nn1)=N\O	> 100 µM (inactive)	> 100 µM (inactive)	> 100 µM (inactive)	> 100 µM (inactive)	> 100 µM (inactive)	> 100 µM (inactive)	> 100 µM (inactive)	> 100 µM (inactive)	> 100 µM (inactive)	> 100 µM (inactive)	> 100 µM (inactive)	> 100 µM (inactive)	> 100 µM (inactive)	> 100 µM (inactive)	> 100 µM (inactive)	> 100 µM (inactive)	> 100 µM (inactive)	> 100 µM (inactive)	> 100 µM (inactive)	–
CC(=O)OC/C=C/Cn1nc(Br)c(=O)[nH]c1=O	> 100 µM (inactive)	> 100 µM (inactive)	> 100 µM (inactive)	> 100 µM (inactive)	> 100 µM (inactive)	> 100 µM (inactive)	> 100 µM (inactive)	> 100 µM (inactive)	> 100 µM (inactive)	> 100 µM (inactive)	> 100 µM (inactive)	> 100 µM (inactive)	> 100 µM (inactive)	> 100 µM (inactive)	> 100 µM (inactive)	> 100 µM (inactive)	> 100 µM (inactive)	–	> 100 µM (inactive)	> 100 µM (inactive)
CCOC(CN(C)C(=S)Nc1cccc2ccccc12)OCC	> 10 µM (inactive)	> 10 µM (inactive)	> 10 µM (inactive)	> 10 µM (inactive)	> 10 µM (inactive)	> 10 µM (inactive)	> 10 µM (inactive)	> 10 µM (inactive)	> 10 µM (inactive)	> 10 µM (inactive)	–	> 10 µM (inactive)	> 10 µM (inactive)	> 10 µM (inactive)	> 10 µM (inactive)	> 10 µM (inactive)	> 10 µM (inactive)	> 10 µM (inactive)	> 10 µM (inactive)	> 10 µM (inactive)
CC(C)=CCC\C(C)=C/C=C/C(C)=C\C=C\C(C)=C/C=C/C=C(C)\C=C\C=C(C)/C=C/C=C(/C)CCC=C(C)C	> 100 µM (inactive)	> 100 µM (inactive)	> 100 µM (inactive)	> 100 µM (inactive)	> 100 µM (inactive)	> 100 µM (inactive)	> 100 µM (inactive)	> 100 µM (inactive)	> 100 µM (inactive)	> 100 µM (inactive)	> 100 µM (inactive)	> 100 µM (inactive)	> 100 µM (inactive)	–	> 100 µM (inactive)	> 100 µM (inactive)	> 100 µM (inactive)	> 100 µM (inactive)	> 100 µM (inactive)	> 100 µM (inactive)
COC(=O)c1nc(Cl)nc(Cl)c1Cl	14.4 µM (inactive)	18.6 µM (inactive)	–	18.2 µM (inactive)	22.2 µM (inactive)	13.4 µM (inactive)	17.6 µM (inactive)	10.5 µM (inactive)	33.8 µM (inactive)	2.02 µM (inactive)	23.5 µM (inactive)	21 µM (inactive)	14.4 µM (inactive)	1.29 µM (inactive)	14.4 µM (inactive)	42.3 µM (inactive)	18.3 µM (inactive)	41.9 µM (inactive)	15.1 µM (inactive)	22 µM (inactive)
O=C(c1ccccc1)N1C(=S)NC(=N/c2ccccc2)/C1=N\c1ccccc1	> 100 µM (inactive)	> 100 µM (inactive)	> 100 µM (inactive)	> 100 µM (inactive)	> 100 µM (inactive)	> 100 µM (inactive)	> 100 µM (inactive)	> 100 µM (inactive)	> 100 µM (inactive)	–	> 100 µM (inactive)	> 100 µM (inactive)	> 100 µM (inactive)	> 100 µM (inactive)	33.9 µM (inactive)	> 100 µM (inactive)	> 100 µM (inactive)	> 100 µM (inactive)	> 100 µM (inactive)	> 100 µM (inactive)
Cc1c(CCCl)c(N=[N+]=[N-])n2c(nc3ccccc32)c1C#N	1.22 µM (inactive)	1.07 µM (active)	1.87 µM (inactive)	0.498 µM (active)	1.66 µM (inactive)	0.902 µM (active)	1.42 µM (inactive)	0.249 µM (active)	1.69 µM (inactive)	1.39 µM (inactive)	1.94 µM (inactive)	1.7 µM (inactive)	1.42 µM (inactive)	0.385 µM (active)	1.4 µM (inactive)	1.67 µM (inactive)	0.491 µM (active)	2.11 µM (inactive)	0.311 µM (active)	–
O=S(=O)(O)c1ccc(/N=N\c2c(O)ccc3cc(Br)ccc23)cc1	> 100 µM (inactive)	> 100 µM (inactive)	> 100 µM (inactive)	> 100 µM (inactive)	> 100 µM (inactive)	> 100 µM (inactive)	> 100 µM (inactive)	> 100 µM (inactive)	> 100 µM (inactive)	> 100 µM (inactive)	> 100 µM (inactive)	> 100 µM (inactive)	> 100 µM (inactive)	> 100 µM (inactive)	> 100 µM (inactive)	> 100 µM (inactive)	> 100 µM (inactive)	> 100 µM (inactive)	> 100 µM (inactive)	–
COC1=CC(=O)c2c(cc(COP(N)(=O)N(CCBr)CCBr)n2C)C1=O (centres undefined)	< 0.01 µM (active)	0.0242 µM (active)	0.0212 µM (active)	< 0.01 µM (active)	1 µM (active)	< 0.01 µM (active)	2.1 µM (inactive)	< 0.01 µM (active)	0.184 µM (active)	0.0822 µM (active)	0.104 µM (active)	< 0.01 µM (active)	1.11 µM (active)	< 0.01 µM (active)	0.0719 µM (active)	< 0.01 µM (active)	0.418 µM (active)	0.0137 µM (active)	< 0.01 µM (active)	–
